{"source": "patent US20060160197A1", "about": "(priority 2004, published 2006)", "type_in_all_cases": "physicochemical", "key": {"[1]": {"assay": "Example 17 back extraction with aqueous glycolic acid from loaded solvent (70% Alamine 336/10% MIBK/20% kerosene), 120° C.", "conditions": "40 psig nitrogen", "description": "(§1) A variety of analytical methods can be employed to analyze the reactants and products produced using the present methods include HPLC, GC, ion selective electrodes, MS, NMR, etc. HPLC was used to measure glycolic acid and various related products. Briefly, samples are diluted with water (as needed to be within HPLC detection range) and mixed 1:1 with 0.2 M n-propanol in water (HPLC internal standard). HPLC Analytical Method: (BioRad HPX 87H ion exclusion column (BioRad, Hercules, Calif.), 300 mm×7.8 mm; 0.01 N H2SO4 mobile phase; 1.0 mL/min flow at 50° C.; 10 μL injection volume; RI detector and UV 210 nm, 20 min analysis time). HPLC Equipment: (Waters 2695 ‘Alliance’ Separations Module, 2410 Refractive Index Detector, 2487 Dual λ Absorbance Detector and Empower Pro Software (Waters Corp, Milford, Mass.).\nFollowing the procedures in Example 1, into a 1-L cylindrical glass vessel on an extraction mixer (mix by rotating back and forth vertically) was placed 100 mL of a mixed solvent containing 70% (volume/volume) Alamine® 336 (Cognis), 10% (volume/volume) methyl isobutyl ketone (MIBK) and 20% (volume/volume) kerosene. The pH of an aqueous solution of ammonium glycolate (10 wt % to 50 wt %) was adjusted to approximately pH 2 to 3 with concentrated sulfuric acid, then 100 mL of the resulting aqueous solution was added to the extraction mixer. […]"}, "[2]": {"assay": "Example 9 reactive solvent extraction, 90% Alamine 336/10% 1-octanol, 75° C.", "conditions": "pH 2 to 3", "description": "as §1\nSolvent Extraction Using Approximately 90% C8-C10 Trialkylamine in Combination with 10% 1-Octanol at 75° C.\nInto a 4-mL glass reactor equipped with magnetic stir bar was placed 1 mL of a mixed solvent containing 90% (volume/volume) Alamine® 336 (Cognis), 10% (volume/volume) 1-octanol. The pH of an aqueous solution of ammonium glycolate (5 wt % to 40 wt %) was adjusted to pH 2 to 3 with concentrated sulfuric acid, then 1 mL of the resulting aqueous solution was added to the reactor. The resulting mixture was stirred for 30 minutes at 75° C."}, "[3]": {"assay": "Example 8 reactive solvent extraction, 90% Alamine 336/10% 1-octanol, 25° C.", "conditions": "pH 2 to 3", "description": "as §1\nSolvent Extraction Using Approximately 90% C8-C10 Trialkylamine in Combination with 10% 1-Octanol at 25° C.\nInto a 4-mL glass reactor equipped with magnetic stir bar was placed 1 mL of a mixed solvent containing 90% (volume/volume) Alamine® 336 (Cognis), 10% (volume/volume) 1-octanol. The pH of an aqueous solution of ammonium glycolate (5 wt % to 40 wt %) was adjusted to pH 2 to 3 with concentrated sulfuric acid, then 1 mL of the resulting aqueous solution was added to the reactor. The resulting mixture was stirred for 30 minutes at 25° C."}, "[4]": {"assay": "Example 4 reactive solvent extraction, 90% Alamine 336/10% MIBK, 25° C.", "conditions": "pH 2 to 3", "description": "as §1\nSolvent Extraction Using Approximately 90% C8-C10 Trialkylamine in Combination with 10% Methyl Isobutyl Ketone at 25° C.\nInto a 4-mL glass reactor equipped with magnetic stir bar was placed 1 mL of a mixed solvent containing 90% (volume/volume) Alamine® 336 (Cognis) and 10% (volume/volume) methyl isobutyl ketone (MIBK). The pH of an aqueous solution of ammonium glycolate (5 wt % to 40 wt %) was adjusted to pH 2 to 3 with concentrated sulfuric acid, then 1 mL of the resulting aqueous solution was added to the reactor. The resulting mixture was stirred for 30 minutes at 25° C."}, "[5]": {"assay": "Example 23 back extraction with aqueous glycolic acid from loaded solvent (70% trialkylamine/30% toluene), 140° C.", "conditions": "70% C8-C10 trialkylamine/30% toluene, 40 psig nitrogen", "description": "as §1\nBack Extraction from a Loaded Solvent of Approximately 70% C8-C10 Trialkylamine in Combination with 30% Toluene\nThe vessel was then closed, and the headspace purged with nitrogen. The resulting mixture was stirred for 60 minutes at 140° C. under 40 psig (˜275.8 kPa) nitrogen. The stirring was stopped and the two phases allowed to separate at 140° C., then the organic phase was sampled under pressure through the top dip tube into a Hoke cylinder, and aqueous phases was sampled under pressure through the bottom dip tube into another Hoke cylinder."}, "[6]": {"assay": "Example 12 reactive solvent extraction, 90% Alamine 336/10% toluene, 25° C.", "conditions": "pH 2 to 3", "description": "as §1\nSolvent Extraction Using Approximately 90% C8-C10 Trialkylamine in Combination with 10% Toluene at 25° C.\nInto a 4-mL glass reactor equipped with magnetic stir bar was placed 1 mL of a mixed solvent containing 90% (volume/volume) Alamine® 336 (Cognis), 10% (volume/volume) toluene. The pH of an aqueous solution of ammonium glycolate (5 wt % to 40 wt %) was adjusted to pH 2 to 3 with concentrated sulfuric acid, then 1 mL of the resulting aqueous solution was added to the reactor. The resulting mixture was stirred for 30 minutes at 25° C."}, "[7]": {"conditions": "initial 3.6 wt % glycolic acid in aqueous phase"}, "[8]": {"conditions": "initial 8.5 wt % glycolic acid in aqueous phase"}, "[9]": {"conditions": "initial 12.1 wt % glycolic acid in aqueous phase"}, "[10]": {"conditions": "initial 16.1 wt % glycolic acid in aqueous phase"}, "[11]": {"conditions": "initial 20.6 wt % glycolic acid in aqueous phase"}, "[12]": {"conditions": "initial 25.1 wt % glycolic acid in aqueous phase"}, "[13]": {"conditions": "initial 29.1 wt % glycolic acid in aqueous phase"}, "[14]": {"conditions": "initial 32.8 wt % glycolic acid in aqueous phase"}}, "data": [{"smiles": "O=C(O)CO", "note": "[glycolic acid]", "values": [{"measurement": "Partition coefficient (wt % org./wt % aq.)", "setting": "[1]; initial 20.0 wt % glycolic acid in aqueous phase, 16.0 wt % in loaded solvent", "value": 0.59}, {"measurement": "Partition coefficient (wt % org./wt % aq.)", "setting": "[1]; initial 40.0 wt % glycolic acid in aqueous phase, 17.5 wt % in loaded solvent", "value": 0.51}, {"measurement": "Partition coefficient (wt % org./wt % aq.)", "setting": "[2]; [7]", "value": 0.54}, {"measurement": "Partition coefficient (wt % org./wt % aq.)", "setting": "[2]; [8]", "value": 0.56}, {"measurement": "Partition coefficient (wt % org./wt % aq.)", "setting": "[2]; [9]", "value": 0.62}, {"measurement": "Partition coefficient (wt % org./wt % aq.)", "setting": "[2]; [10]", "value": 0.63}, {"measurement": "Partition coefficient (wt % org./wt % aq.)", "setting": "[2]; [11]", "value": 0.73}, {"measurement": "Partition coefficient (wt % org./wt % aq.)", "setting": "[2]; [12]", "value": 0.75}, {"measurement": "Partition coefficient (wt % org./wt % aq.)", "setting": "[2]; [13]", "value": 0.73}, {"measurement": "Partition coefficient (wt % org./wt % aq.)", "setting": "[2]; [14]", "value": 0.70}, {"measurement": "Partition coefficient (wt % org./wt % aq.)", "setting": "[3]; [7]", "value": 1.09}, {"measurement": "Partition coefficient (wt % org./wt % aq.)", "setting": "[3]; [8]", "value": 1.03}, {"measurement": "Partition coefficient (wt % org./wt % aq.)", "setting": "[3]; [9]", "value": 1.30}, {"measurement": "Partition coefficient (wt % org./wt % aq.)", "setting": "[3]; [10]", "value": 1.20}, {"measurement": "Partition coefficient (wt % org./wt % aq.)", "setting": "[3]; [11]", "value": 1.20}, {"measurement": "Partition coefficient (wt % org./wt % aq.)", "setting": "[3]; [12]", "value": 1.10}, {"measurement": "Partition coefficient (wt % org./wt % aq.)", "setting": "[3]; [13]", "value": 0.99}, {"measurement": "Partition coefficient (wt % org./wt % aq.)", "setting": "[3]; [14]", "value": 0.82}, {"measurement": "Partition coefficient (wt % org./wt % aq.)", "setting": "[4]; [7]", "value": 1.98}, {"measurement": "Partition coefficient (wt % org./wt % aq.)", "setting": "[4]; [8]", "value": 1.57}, {"measurement": "Partition coefficient (wt % org./wt % aq.)", "setting": "[4]; [9]", "value": 1.38}, {"measurement": "Partition coefficient (wt % org./wt % aq.)", "setting": "[4]; [10]", "value": 1.44}, {"measurement": "Partition coefficient (wt % org./wt % aq.)", "setting": "[4]; [11]", "value": 1.13}, {"measurement": "Partition coefficient (wt % org./wt % aq.)", "setting": "[4]; [12]", "value": 1.19}, {"measurement": "Partition coefficient (wt % org./wt % aq.)", "setting": "[4]; [13]", "value": 1.14}, {"measurement": "Partition coefficient (wt % org./wt % aq.)", "setting": "[4]; [14]", "value": 0.92}, {"measurement": "Partition coefficient (wt % org./wt % aq.)", "setting": "[5]; initial 20.0 wt % glycolic acid in aqueous phase, 14.2 wt % in loaded solvent", "value": 0.44}, {"measurement": "Partition coefficient (wt % org./wt % aq.)", "setting": "[5]; initial 40.0 wt % glycolic acid in aqueous phase, 15.7 wt % in loaded solvent", "value": 0.45}, {"measurement": "Partition coefficient (wt % org./wt % aq.)", "setting": "[6]; [7]", "value": 1.22}, {"measurement": "Partition coefficient (wt % org./wt % aq.)", "setting": "[6]; [8]", "value": 1.41}, {"measurement": "Partition coefficient (wt % org./wt % aq.)", "setting": "[6]; [9]", "value": 1.46}, {"measurement": "Partition coefficient (wt % org./wt % aq.)", "setting": "[6]; [10]", "value": 1.23}, {"measurement": "Partition coefficient (wt % org./wt % aq.)", "setting": "[6]; [11]", "value": 1.20}, {"measurement": "Partition coefficient (wt % org./wt % aq.)", "setting": "[6]; [12]", "value": 1.26}, {"measurement": "Partition coefficient (wt % org./wt % aq.)", "setting": "[6]; [13]", "value": 1.00}, {"measurement": "Partition coefficient (wt % org./wt % aq.)", "setting": "[6]; [14]", "value": 0.86}]}]}
